The text below walks through data of US9957271B2, “Substituted bicyclic aza-heterocycles and analogues as sirtuin modulators” (GlaxoSmithKline, LLC, priority 2012, dated 2018).

For the experiment, the target named is T1, SIRT1 (Homo sapiens, UniProt Q96EB6).
T1 sequence (Q96EB6 1-747): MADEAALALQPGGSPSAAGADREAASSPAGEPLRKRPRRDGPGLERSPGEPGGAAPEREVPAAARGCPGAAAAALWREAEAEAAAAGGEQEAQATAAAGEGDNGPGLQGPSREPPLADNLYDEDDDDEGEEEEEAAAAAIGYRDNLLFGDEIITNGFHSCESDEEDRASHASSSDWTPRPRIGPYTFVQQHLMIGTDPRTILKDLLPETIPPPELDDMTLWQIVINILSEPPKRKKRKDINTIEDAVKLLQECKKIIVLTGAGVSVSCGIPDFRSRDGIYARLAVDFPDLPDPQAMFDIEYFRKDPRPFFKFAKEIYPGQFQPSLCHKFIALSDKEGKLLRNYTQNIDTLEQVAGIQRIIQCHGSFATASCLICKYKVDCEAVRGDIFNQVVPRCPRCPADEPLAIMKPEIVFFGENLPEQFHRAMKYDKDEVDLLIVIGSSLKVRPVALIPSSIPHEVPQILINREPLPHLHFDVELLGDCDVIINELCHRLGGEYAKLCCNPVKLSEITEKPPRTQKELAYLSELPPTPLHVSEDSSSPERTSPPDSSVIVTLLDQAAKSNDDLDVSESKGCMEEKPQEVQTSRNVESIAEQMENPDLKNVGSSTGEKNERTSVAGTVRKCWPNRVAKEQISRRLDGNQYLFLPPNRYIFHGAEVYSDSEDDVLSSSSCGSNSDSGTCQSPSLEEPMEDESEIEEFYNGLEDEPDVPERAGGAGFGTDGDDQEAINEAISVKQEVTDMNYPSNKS
In words: TAMRA based mass spectrometry assay of SIRT1 activity. The format is biochemical. The following applies: TAMRA assay; for TAMRA EC1.5 (μM): concentration giving 150% activation of SIRT1; for Emax: percent maximum fold activation, read-out: TAMRA % Fold Act. The method, boiled down:
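Deacetylation of a biotinylated, TAMRA-tagged p53-based peptide (0.5 μM) by 10 nM His-tagged SIRT1 with 120 μM βNAD+, 25 °C for 25 min, pH 8 Tris-acetate buffer, across a compound concentration range. Quenched by formic acid and read by mass spec as product peptide or OAADPR; activity relative to DMSO reactions, nicotinamide defining maximal inhibition.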

Each structure is given as a SMILES string. Bounds are passed on as bounds.

Turning to `Cc1nc2ccc(-c3ccccc3Cl)nn2c1C(=O)Nc1cccnn1` [Compound 715], the “TAMRA EC1.5 (μM)” value is listed as “B (EC1.5 1-25 μM)” and the Emax was at least 350%.

On to `COc1ccc(NC(=O)c2c(C)nc3ccc(-c4ccccc4C)nn23)nn1` [Compound 720], for which the “TAMRA EC1.5 (μM)” value is listed as “B (EC1.5 1-25 μM)” and the Emax is at least 350%.

Take `CCOc1ccc(NC(=O)c2c(C)nc3ccc(-c4ccccc4C)nn23)nn1` [Compound 721]: the “TAMRA EC1.5 (μM)” value is reported as “B (EC1.5 1-25 μM)” and the Emax was below 350%.

With `Cc1cnc(NC(=O)c2cnn3ccc(-c4ccccc4C(F)(F)F)nc23)cn1` [Compound 723, N-(5-methylpyrazin-2-yl)-5-(2-(trifluoromethyl)phenyl)pyrazolo[1,5-a]pyrimidine-3-carboxamide], the “TAMRA EC1.5 (μM)” value is recorded as “A (EC1.5<1 μM)” and the Emax was at least 350%.

Regarding `Cc1nccc(C(=O)Nc2cnn3ccc(-c4ccccc4OC(F)(F)F)nc23)n1` [Compound 726], the “TAMRA EC1.5 (μM)” value is given as “A (EC1.5<1 μM)” and the Emax was at least 350%.

In the case of `Cc1cc(C(=O)Nc2cnn3ccc(-c4ccccc4OC(F)(F)F)nc23)nc(C)n1` [Compound 727], the “TAMRA EC1.5 (μM)” value is “A (EC1.5<1 μM)” and the Emax was at least 350%.

For the compound `Cc1nccc(NC(=O)c2c(C)nc3c(C)cc(-c4ccccc4C(F)(F)F)nn23)n1` [Compound 729], the “TAMRA EC1.5 (μM)” value is “A (EC1.5<1 μM)” and the Emax was at least 350%.

For `Cc1nc2c(C)cc(-c3ccccc3C(F)(F)F)nn2c1C(=O)Nc1ccnc(C2CC2)n1` [Compound 732], the “TAMRA EC1.5 (μM)” value is given as “A (EC1.5<1 μM)” and the Emax is at least 350%.

For the compound `COCc1nccc(NC(=O)c2c(C)nc3c(C)cc(-c4ccccc4C(F)(F)F)nn23)n1` [Compound 733], the “TAMRA EC1.5 (μM)” value is “A (EC1.5<1 μM)” and the Emax is at least 350%.

Take `O=C(Nc1cnn2ccc(-c3ccccc3OC(F)(F)F)nc12)c1cnc(O)cn1` [Compound 735]: the “TAMRA EC1.5 (μM)” value is recorded as “B (EC1.5 1-25 μM)” and the Emax is at least 350%.

As to `Cc1nc2c(N3CCOCC3)cc(-c3ccccc3C(F)(F)F)nn2c1C(=O)Nc1cccnn1` [Compound 738, 2-methyl-8-morpholino-N-(pyridazin-3-yl)-6-(2-(trifluoromethyl)phenyl)imidazo[1,2-b]pyridazine-3-carboxamide], the “TAMRA EC1.5 (μM)” value is on record as “A (EC1.5<1 μM)” and the Emax was at least 350%.

With `CCOc1ccc(NC(=O)c2c(C)nc3ccc(-c4ccccc4F)nn23)nn1` [Compound 741], the “TAMRA EC1.5 (μM)” value is listed as “B (EC1.5 1-25 μM)” and the Emax is below 350%.

With `CCOc1ccc(NC(=O)c2c(C)nc3ccc(-c4ccccc4Cl)nn23)nn1` [Compound 744], the “TAMRA EC1.5 (μM)” value was “A (EC1.5<1 μM)” and the Emax is below 350%.

Consider `Cc1nc2c(OC[C@H]3COC(C)(C)O3)cc(-c3ccccc3C(F)(F)F)nn2c1C(=O)Nc1cccnn1` [Compound 745], for which the “TAMRA EC1.5 (μM)” value is on record as “A (EC1.5<1 μM)” and the Emax was at least 350%.

In the case of `O=C(Nc1cnn2ccc(-c3ccccc3C(F)(F)F)nc12)c1ncccc1F` [Compound 747], the “TAMRA EC1.5 (μM)” value is recorded as “A (EC1.5<1 μM)” and the Emax is at least 350%.

In the case of `Cc1cc(C)nc(C(=O)Nc2cnn3ccc(-c4ccccc4OC(F)(F)F)nc23)c1` [Compound 750], the “TAMRA EC1.5 (μM)” value is on record as “A (EC1.5<1 μM)” and the Emax was at least 350%.

Turning to `COc1cccc(C(=O)Nc2cnn3ccc(-c4ccccc4OC(F)(F)F)nc23)n1` [Compound 751], the “TAMRA EC1.5 (μM)” value is listed as “A (EC1.5<1 μM)” and the Emax was at least 350%.

As to `Cc1cnc(NC(=O)c2c(C)nn3ccc(-c4ccccc4C(F)(F)F)nc23)c(C)n1` [Compound 753], the “TAMRA EC1.5 (μM)” value is “B (EC1.5 1-25 μM)” and the Emax is at least 350%.

Regarding `Cc1scnc1C(=O)Nc1cnn2ccc(-c3ccccc3OC(F)(F)F)nc12` [Compound 756], the “TAMRA EC1.5 (μM)” value is reported as “B (EC1.5 1-25 μM)” and the Emax was at least 350%.

`Cc1cc(C)nc(NC(=O)c2c(C)nc3ccc(-c4ccccc4OC[C@H](O)CO)nn23)c1` [Compound 757]: the “TAMRA EC1.5 (μM)” value is given as “B (EC1.5 1-25 μM)” and the Emax was at least 350%.

Regarding `COc1ccc(NC(=O)c2c(C)nc3ccc(-c4cccc(C)c4)nn23)nn1` [Compound 759], the “TAMRA EC1.5 (μM)” value is “A (EC1.5<1 μM)” and the Emax is below 350%.

As for `CCOc1ccc(NC(=O)c2c(C)nc3ccc(-c4cccc(C)c4)nn23)nn1` [Compound 760], the “TAMRA EC1.5 (μM)” value is given as “A (EC1.5<1 μM)” and the Emax was below 350%.

Regarding `CCOc1ccc(NC(=O)c2c(C)nc3ccc(-c4cccc(F)c4)nn23)nn1` [Compound 762], the “TAMRA EC1.5 (μM)” value is reported as “B (EC1.5 1-25 μM)” and the Emax is below 350%.

Take `Cc1nc2ccc(-c3ccccc3Br)nn2c1C(=O)Nc1cccnn1` [Compound 763]: the “TAMRA EC1.5 (μM)” value is on record as “A (EC1.5<1 μM)” and the Emax was at least 350%.

In the case of `Cc1ccc(NC(=O)c2c(C)nc3ccc(-c4ccccc4Br)nn23)nn1` [Compound 764], the “TAMRA EC1.5 (μM)” value is reported as “A (EC1.5<1 μM)” and the Emax is at least 350%.

On to `COc1ccc(NC(=O)c2c(C)nc3ccc(-c4ccccc4Br)nn23)nn1` [Compound 765], for which the “TAMRA EC1.5 (μM)” value is given as “A (EC1.5<1 μM)” and the Emax is at least 350%.

As to `Cc1nn2ccc(-c3ccccc3C(F)(F)F)nc2c1C(=O)Nc1cncc(F)c1` [Compound 768], the “TAMRA EC1.5 (μM)” value was “A (EC1.5<1 μM)” and the Emax was at least 350%.

With `O=C(Nc1cnn2ccc(-c3ccccc3OC(F)(F)F)nc12)c1cccc(-n2cnnc2)n1` [Compound 769], the “TAMRA EC1.5 (μM)” value is “A (EC1.5<1 μM)” and the Emax is at least 350%.

Turning to `CC(C)c1csc(C(=O)Nc2cnn3ccc(-c4ccccc4OC(F)(F)F)nc23)n1` [Compound 771], the “TAMRA EC1.5 (μM)” value is listed as “A (EC1.5<1 μM)” and the Emax is at least 350%.

`Cc1nc2ccc(-c3ccccc3OC[C@H](O)CO)nn2c1C(=O)Nc1ccncn1` [Compound 774]: the “TAMRA EC1.5 (μM)” value was “A (EC1.5<1 μM)” and the Emax was below 350%.

As to `Cc1nc2ccc(-c3ccccc3OC[C@H](O)CO)nn2c1C(=O)Nc1cnccn1` [Compound 775], the “TAMRA EC1.5 (μM)” value is “A (EC1.5<1 μM)” and the Emax was at least 350%.

On to `Cc1cc(C)nc(NC(=O)c2c(C)nn3ccc(-c4ccccc4C(F)(F)F)nc23)n1` [Compound 777], for which the “TAMRA EC1.5 (μM)” value is “A (EC1.5<1 μM)” and the Emax was at least 350%.

In the case of `O=C(Nc1cnn2ccc(-c3ccccc3OC(F)(F)F)nc12)c1nc2c(s1)CCCC2` [Compound 780], the “TAMRA EC1.5 (μM)” value was “A (EC1.5<1 μM)” and the Emax was at least 350%.

Turning to `O=C(Nc1cnn2ccc(-c3ccccc3OC(F)(F)F)nc12)c1nccs1` [Compound 781], the “TAMRA EC1.5 (μM)” value is reported as “B (EC1.5 1-25 μM)” and the Emax is at least 350%.

For `O=C(Nc1cnn2ccc(-c3ccccc3C(F)(F)F)nc12)c1cncc(OC[C@@H](O)CO)n1` [Compound 783], the “TAMRA EC1.5 (μM)” value is listed as “A (EC1.5<1 μM)” and the Emax is at least 350%.

`CCOc1nccc(NC(=O)c2c(C)nn3ccc(-c4ccccc4C(F)(F)F)nc23)n1` [Compound 786]: the “TAMRA EC1.5 (μM)” value is listed as “A (EC1.5<1 μM)” and the Emax is at least 350%.
